This series is described as follows: gradient 5% acetonitrile 3 min, to 50% in 2 min, to 85% in 15 min, held 3 min, 100 µL/min. Conditions: column: Zorbax Extend-C18 2.1 x 50 mm; eluents: water / acetonitrile, 0.1% formic acid. The method in brief: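 Pure standards were run in mixtures of ~100 molecules by HPLC coupled to a quadrupole time-of-flight mass spectrometer. The column was a Zorbax Extend-C18 (2.1 × 50 mm, 1.8 μm) at 100 μL/min, with water and acetonitrile each containing 0.1% formic acid, in positive and negative ionization mode. Dead and dwell volumes were 40 μL and 900 μL. Retention time was taken from computationally picked adduct peaks, each manually inspected, with data collected over 3 months.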
Take `O=C(NC1CCCC1)c1csc(-c2ccc(N3CCCCC3)nc2)n1`: the RP-LC retention time is 937 s.

For `COc1ccc(NC(=O)Cn2nc3n(c2=O)CCCCC3)cc1Cl`, the RP-LC retention time was found to be 692 s. The value for `Cn1nccc1C(=O)Nc1ccc(Br)cc1` was 791 s; that for `Cc1nc2cc(N3CCCC(C(=O)NCc4ccc(N(C)C)cc4)C3)cnc2nc1C` (centres undefined) was 586 s. The value for `COc1ccc(C(=O)NC2CCN(c3cc(-c4ccc(F)cc4)[nH]n3)C2)c(OC)c1` (centres undefined) was 740 s; that for `Cc1oc(-c2ccc(C(=O)NCCN(C)C)cc2)nc1CS(=O)c1ccccc1` (centres undefined) was 590 s; that for `CCCS(=O)(=O)c1nc2ccc(NS(=O)(=O)c3c(C)cc(C)cc3C)cc2s1` was 1030 s. `COC(=O)c1c2c(nc3ccccc13)CCN(C(=O)Nc1ccccc1OC)C2` gave an RP-LC retention time of 820 s.

Consider `NC(=O)c1nc(-c2ccccc2F)n2c1CCCCC2`, for which the RP-LC retention time came out at 722 s. The value for `NC(=O)C(=O)c1cn(CC(=O)NC2CCCCC2)c2ccccc12` was 743 s. For the compound `CN1C(=O)c2cc(C(=O)NCCCN3CCCC3)nn2CC1(C)C(=O)NCc1ccccc1` (centres undefined), the RP-LC retention time came out at 589 s.

Consider `O=C(NC1CCCCCC1)C1CCN(S(=O)(=O)c2cc(C(=O)N3CCCCCC3)cs2)CC1`, for which the RP-LC retention time amounted to 956 s. The value for `O=C(Cn1nc(N2CCCC2)c2ccccc2c1=O)Nc1ccc2c(c1)OCO2` was 854 s; that for `Cc1cc(C)c2c(N3CCCCC3)nc(C(=O)N3CCC(C)CC3)nc2n1` was 698 s; that for `COc1ccc(N2CCN(C(=O)C3CC(=O)N(c4n[nH]c5cccc(F)c45)C3)CC2)cc1` (centres undefined) was 662 s. `O=C1CC(c2ccccc2)N(Cc2ccc3c(c2)CCO3)CCCCCCN1` (centres undefined) gave an RP-LC retention time of 668 s. The result for `CCc1ccc(C2=C(C)C(N3CCCN(C(=O)Cn4ccnc4)CC3)=NS2(=O)=O)cc1` reads 642 s.

In turn, `COc1ccc(-c2csc(NC(=O)C3(c4ccccc4)CCCC3)n2)cc1OC` displayed an RP-LC retention time of 1170 s. The result for `Cc1cccc(NC(=O)Nc2ccc3c(c2)CCN3S(=O)(=O)c2ccccc2)c1C` reads 984 s; that for `Cc1ccc(-c2coc(-c3ccc(NC(=O)C(C)(C)C)cc3)n2)cc1`, 1220 s. `CCNC(=O)c1ccc(-n2c(C)ccc2C)nc1` yielded an RP-LC retention time of 566 s. The result for `Cc1nc(NC(=O)C2COCC(=O)N2Cc2ccccc2)sc1C(=O)N(C)C` (centres undefined) reads 615 s; that for `Cn1nnc2ccc(-c3noc(Cc4cccc(F)c4)n3)cc21`, 921 s.

On to `COc1ccc(NC(=O)CC2=C3CCCCC3NC2=O)cn1` (centres undefined), for which the RP-LC retention time came out at 640 s. In the case of `O=C(NCc1ccc2c(c1)OCO2)c1cn2c(n1)CCCC2`, the RP-LC retention time was 581 s. The value for `O=C(Cn1nc2nc(Nc3ccc(F)cc3)ccn2c1=O)NCC1CCCO1` (centres undefined) was 637 s; that for `CCSCCOC(=O)C1=C(C)NC2=C(C(=O)C(C(=O)OC)C(C)C2)C1c1ccccc1OC` (centres undefined) was 967 s; that for `CC(C)CNC(=O)CCc1nc2ccccc2n(CC(=O)NCc2ccccc2Cl)c1=O` was 822 s. The value for `Cc1ccsc1C(=O)Nc1cccn2c(C3CCC3)nnc12` was 805 s. The value for `CCOCCCNC(=O)CN1C(=O)C2CCCCN2c2ccc(C(=O)N3CCCC3)cc21` (centres undefined) was 694 s. Compound `COc1ccc(NC(=O)N2CCN(Cc3nc4ccc(Cl)cc4o3)CC2)cc1` gave an RP-LC retention time of 713 s. The value for `Cc1ccc2c(c1)N(C(=O)Cn1cccc1-c1nc(-c3ccc4c(c3)OCO4)no1)CCO2` was 1160 s; that for `CC1CCN(S(=O)(=O)c2ccc(-c3nnc(C(=O)N4CCN(C)CC4)o3)cc2)CC1` was 665 s.

`CCc1ccc(CNC(=O)C2CCN(Cc3cn(CC)c4ccc(OC)cc34)CC2)cc1` displayed an RP-LC retention time of 761 s. `CN1C(=O)c2[nH]nc(-c3ccccc3)c2C1c1ccc(O)cc1` (centres undefined) yielded an RP-LC retention time of 670 s. In turn, `O=C(Nc1ccc(Cl)c(N2CCCS2(=O)=O)c1)c1ccccc1C(F)(F)F` displayed an RP-LC retention time of 791 s. For the compound `COc1ccc(N2CC(c3noc(-c4cc(OC)cc(OC)c4)n3)CC2=O)cc1` (centres undefined), the RP-LC retention time was determined as 959 s.

`Cc1oc(-c2[nH]ncc2C(=O)N2CCCC2)cc1S(=O)(=O)N1CCN(CC(C)C)CC1` showed an RP-LC retention time of 580 s. In turn, `CC(C)(C)NC(=O)C(=O)c1c(-c2ccccc2)cc2ccccn12` came in with an RP-LC retention time of 948 s. As for `Cc1cccc(-c2nc3ccccn3c2NC(=O)NCc2ccco2)c1`, the RP-LC retention time is 640 s.

Consider `COc1ccc(Br)c(C(=O)N2CC(c3nc(-c4cccc(Cl)c4)no3)C2)c1`, for which the RP-LC retention time is 1000 s. In turn, `CCc1ccc(N2C=C(C(=O)N3CCOCC3)S(=O)(=O)c3ccc(F)cc32)cc1` registered an RP-LC retention time of 873 s. The result for `O=C(COc1ccccc1F)N1CCC(Oc2nc3ccccc3s2)CC1` reads 986 s; that for `CCc1cccc(C)c1NC(=O)Cn1nc(N2CCOCC2)c2ccccc2c1=O`, 809 s; that for `Cc1ccc(S(=O)(=O)N2CCC(CN3CCCCCC3)CC2)cc1Cl`, 721 s. In the case of `Cc1csc(-c2cc(S(=O)(=O)N3CCN(C(C)C)CC3)cn2CC(=O)N2CCCCC2)n1`, the RP-LC retention time is 688 s.

Take `O=C1CSC(c2ccccc2Cl)c2cc(Cl)ccc2N1` (centres undefined): the RP-LC retention time was 987 s. The value for `Cc1cc(C)c2c(N(C)C)nc(C(=O)NC(C)c3ccccn3)nc2n1` (centres undefined) was 559 s; that for `COCCNC(=O)NCCn1c(-c2ccc(C)cc2)nc2cccnc21` was 588 s; that for `COc1ccccc1CCN1CC(=O)N(c2cccc(C)c2)[C@@H]2CS(=O)(=O)C[C@@H]21` was 850 s. For `COc1ccc(S(=O)(=O)Nc2ccc(-c3cn4ccc(C)nc4n3)cc2)c(C)c1C`, the RP-LC retention time is 715 s. The value for `Cc1cc(C)n(-c2cc(N3CCCC(C(=O)Nc4nccs4)C3)ncn2)n1` (centres undefined) was 749 s; that for `Cc1cc(C)n(-c2ncnc3c2cnn3Cc2ccccc2)n1` was 1240 s. As for `Cc1ccc(-c2nnc(Cc3nc(-c4ccc(Br)cc4)no3)o2)cc1F`, the RP-LC retention time was 1220 s. The compound `O=C(Nc1ccccc1NC(=O)c1ccc(Br)o1)c1cccnc1` returned an RP-LC retention time of 669 s. With `CN1c2cc(Cl)ccc2C(=O)NC12CCN(C(=O)Nc1cccc(F)c1)CC2`, the RP-LC retention time came out at 831 s. The result for `Cc1ccc(NC(=O)Cn2ccc3sccc3c2=O)cc1Cl` reads 830 s.

The compound `CCc1cc(C(=O)Nc2ccc(C(=O)OC)cc2)nc2cc(-c3ccco3)nn12` had an RP-LC retention time of 1200 s.

Take `O=C(Cn1nc2c3sc(N4CCCCC4)nc3ncn2c1=O)Nc1ccc(Cl)cc1F`: the RP-LC retention time was 868 s.

(Values after the METLIN SMRT retention time set (Domingo-Almenara et al. 2019).)
